For 26 molecules, ED50 and inhibition in vivo results are on record in ChEMBL document CHEMBL3244041, “Synthesis and structure-activity relationships of 5H,11 H-[I]benzopyrano[4,3-g]benzopyran-9-carboxylic acids” (1977).

What is called ED50 is the midpoint of the dose-response relation. The inhibition in vivo is the relative decrease from the control value, in per cent.

The test system of experiment [1] is Rattus norvegicus. Kind of experiment: Antiallergic activity in iv dosed adrenalectomized Sprague-Dawley rat assessed as inhibition of ovalbumin-induced passive cutaneous anaphylaxis reaction after 12 days by Evans blue staining. Format: functional. The following applies: 288 h.
Experiment [2] has as its system Rattus norvegicus. Put plainly: Antiallergic activity in adrenalectomized Sprague-Dawley rat assessed as inhibition of ovalbumin-induced passive cutaneous anaphylaxis reaction at 1 mg/kg, iv after 12 days by Evans blue staining. Format: functional. The settings on record: 288 h.

As to `O=C([O-])c1cc(=O)c2cc3c(cc2o1)OCc1ccccc1-3.[Na+]`, in the experiment with Rattus norvegicus [1], the ED50 was found to be 0.3 mg/kg. Further, the inhibition in vivo at 1 mg/kg in the experiment with Rattus norvegicus [2] was 64.3%.

Take `CC1(C)Oc2cc3oc(C(=O)O)cc(=O)c3cc2-c2ccccc21.NCCO`: the ED50 in the experiment with Rattus norvegicus [1] amounted to 0.5 mg/kg. Also, the inhibition in vivo at 1 mg/kg with Rattus norvegicus [2] is 70.3%.

For `CCCCC1(CCCC)Oc2cc3oc(C(=O)O)cc(=O)c3cc2-c2ccccc21`, in the experiment on Rattus norvegicus [2], the inhibition in vivo at 1 mg/kg is 25%.

For `CC1(C)Oc2cc3oc(C(=O)O)cc(=O)c3cc2-c2cc(Cl)ccc21`, the inhibition in vivo at 1 mg/kg in the experiment with Rattus norvegicus [2] was found to be 25%.

Regarding `CC1(C)Oc2cc3oc(C(=O)O)cc(=O)c3cc2-c2ccc(Cl)cc21`, the inhibition in vivo at 1 mg/kg with Rattus norvegicus [2] amounted to 60%.

Consider `CC1(C)Oc2cc3oc(C(=O)O)cc(=O)c3cc2-c2ccc(F)cc21.NCCO`, for which the ED50 in the experiment on Rattus norvegicus [1] worked out at 0.87 mg/kg. Besides, the inhibition in vivo at 1 mg/kg in the experiment with Rattus norvegicus [2] amounted to 60%.

For `CC1(C)Oc2cc3oc(C(=O)[O-])cc(=O)c3cc2-c2ccc(O)cc21.[Na+]`, the ED50 with Rattus norvegicus [1] came out at 0.3 mg/kg. The inhibition in vivo at 1 mg/kg in the experiment on Rattus norvegicus [2] stood at 77.8%.

In the case of `COc1ccc2c(c1)C(C)(C)Oc1cc3oc(C(=O)O)cc(=O)c3cc1-2`, in the experiment on Rattus norvegicus [2], the inhibition in vivo at 1 mg/kg stood at 66.7%.

For the molecule `CCCOc1ccc2c(c1)C(C)(C)Oc1cc3oc(C(=O)O)cc(=O)c3cc1-2`, the inhibition in vivo at 1 mg/kg with Rattus norvegicus [2] was 40%.

`CC(=O)Oc1ccc2c(c1)C(C)(C)Oc1cc3oc(C(=O)O)cc(=O)c3cc1-2`: in the experiment on Rattus norvegicus [2], the inhibition in vivo at 1 mg/kg came out at 73.4%.

For the molecule `COc1cc2c(cc1OC)C(C)(C)Oc1cc3oc(C(=O)O)cc(=O)c3cc1-2`, the inhibition in vivo at 1 mg/kg with Rattus norvegicus [2] was determined as 67.7%.

`COc1cc2c(cc1Br)-c1cc3c(=O)cc(C(=O)O)oc3cc1OC2(C)C`: the inhibition in vivo at 1 mg/kg in the experiment with Rattus norvegicus [2] is 0%.

Turning to `CC1(C)Oc2cc3oc(C(=O)O)cc(=O)c3cc2-c2ccc([N+](=O)[O-])cc21`, the inhibition in vivo at 1 mg/kg with Rattus norvegicus [2] is 50%.

Take `CC1(C)Oc2cc3oc(C(=O)O)cc(=O)c3cc2-c2ccc(S(=O)(=O)O)cc21`: the inhibition in vivo at 1 mg/kg in the experiment on Rattus norvegicus [2] stood at 0%.

On to `CC1(C)Oc2cc3oc(C(=O)O)cc(=O)c3cc2-c2ccc(N)cc21`, for which the inhibition in vivo at 1 mg/kg in the experiment on Rattus norvegicus [2] came out at 77.8%.

As for `COc1cccc2c1COc1cc3oc(C(=O)O)cc(=O)c3cc1-2`, the inhibition in vivo at 1 mg/kg in the experiment with Rattus norvegicus [2] stood at 0%.

Turning to `CC1(C)Oc2c(cc3c(=O)cc(C(=O)O)oc3c2Cl)-c2ccccc21`, in the experiment on Rattus norvegicus [2], the inhibition in vivo at 1 mg/kg is 66.7%.

Consider `CC1(C)Oc2c(cc3c(=O)cc(C(=O)O)oc3c2[N+](=O)[O-])-c2ccccc21`, for which the inhibition in vivo at 1 mg/kg with Rattus norvegicus [2] was 20%.

Take `COc1c2c(cc3c(=O)cc(C(=O)O)oc13)-c1ccccc1CO2`: in the experiment with Rattus norvegicus [2], the inhibition in vivo at 1 mg/kg is 50%.

Take `O=C(O)c1cc(=O)c2cc3c(c(O)c2o1)OCc1ccccc1-3`: in the experiment on Rattus norvegicus [2], the inhibition in vivo at 1 mg/kg was found to be 33.4%.

Take `CC1(C)Oc2c(cc3c(=O)cc(C(=O)O)oc3c2N)-c2ccccc21`: the inhibition in vivo at 1 mg/kg with Rattus norvegicus [2] was 64.3%.

`Cc1c2c(cc3oc(C(=O)O)cc(=O)c13)OC(C)(C)c1ccccc1-2`: in the experiment on Rattus norvegicus [2], the inhibition in vivo at 1 mg/kg was found to be 0%.

With `CC1(C)Oc2cc3oc(C(=O)O)cc(=O)c3c(O)c2-c2ccccc21`, the inhibition in vivo at 1 mg/kg in the experiment on Rattus norvegicus [2] worked out at 0%.

`NCCO.O=C(O)c1cc(=O)c2cc3c(oc(=O)c4ccccc43)c(O)c2o1`: the 50% effective dose (ED50) in the experiment on Rattus norvegicus [1] worked out at 2 mg/kg. In addition, the inhibition in vivo at 1 mg/kg in the experiment with Rattus norvegicus [2] was 55.6%.

For the molecule `CC1(C)Oc2cc3oc(C(=O)O)cc(=O)c3cc2-c2ccc(OCCO)cc21.NCCO`, the median effective dose (ED50) with Rattus norvegicus [1] came to 0.11 mg/kg. Also, the inhibition in vivo at 1 mg/kg in the experiment on Rattus norvegicus [2] is 82.8%.

In the case of `O=C([O-])c1cc(=O)c2c(OCC(O)COc3cccc4oc(C(=O)[O-])cc(=O)c34)cccc2o1.[Na+].[Na+]` [CROMOLYN SODIUM], the median effective dose (ED50) in the experiment on Rattus norvegicus [1] turned out to be 2.88 mg/kg. In addition, in the experiment on Rattus norvegicus [2], the inhibition in vivo at 1 mg/kg was 26.7%.
